Results published in patent US10301277B2, “Substituted ureas and methods of treating mental illness using the same” (ZHEJIANG JINGXIN PHARMACEUTICAL CO., LTD., priority 2016, dated 2019).

How the values were obtained:
[1] = test system: MK-801-induced schizophrenia model; assay: MK-801-induced schizophrenia model, open field running behavior; format: in vivo, Sprague-Dawley rats; conditions: for inhibition of high spontaneous activity of MK-801-induced rats: dose of 0.3 mg/kg, compared with MK-801 model control; for Total Distance within 61-150 minutes / Improvement Rate: single oral administration 0.3 mg/kg; for Total Distance within 61-150 minutes: MK-801 0.3 mg/kg i.p., x ± SD; for Improvement Rate: versus MK-801 model control
Experimental: (I) Modeling of MK-801-Induced Schizophrenia in Mice
Each rat was placed in a soundproof box for 30 minutes on the day before the test to adapt. On the next day, each rat was administrated with the respective test compounds, and after 30 minutes, administrated intraperitoneally with a 0.3 mg/kg MK-801 solution at 5.0 mL/kg body weight of the rat to build a model of MK-801-induced schizophrenia in mice.
(II) Observation of Open Field Running Behavior
Mice were administered with MK-801 and then immediately placed in the soundproof box. The total distances of motion of mice within 2.5 hours were observed and recorded. Improvement rate=(total distance of model control−total distance of administration)/(total distance of model control)×100%. (III) Statistical Method
All the data was expressed with x±SD and processed by SPSS17.0 software statistical package. T-test and one-way analysis of variance were performed to compare the mean of two samples, with P<0.05 as significant difference.

[2] = molecular target: Dopamine D3 receptor (Homo sapiens, UniProt P35462); assay: Dopamine D3 receptor binding assay
Chain of Dopamine D3 receptor (P35462 whole entry, species assumed): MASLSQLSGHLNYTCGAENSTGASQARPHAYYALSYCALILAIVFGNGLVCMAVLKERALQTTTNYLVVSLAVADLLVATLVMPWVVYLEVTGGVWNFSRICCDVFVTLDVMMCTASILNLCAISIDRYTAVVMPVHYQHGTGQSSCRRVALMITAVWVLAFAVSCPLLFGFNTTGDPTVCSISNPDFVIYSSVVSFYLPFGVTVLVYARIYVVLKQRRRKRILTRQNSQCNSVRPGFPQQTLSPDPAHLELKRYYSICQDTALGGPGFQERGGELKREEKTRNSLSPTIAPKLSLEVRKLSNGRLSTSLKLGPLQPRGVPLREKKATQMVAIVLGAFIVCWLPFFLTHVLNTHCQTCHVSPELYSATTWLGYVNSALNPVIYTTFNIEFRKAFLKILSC
Experimental: (§1) This test was carried out according to the dopamine D2/D3 receptor binding assay and the 5-HT1A receptor binding assay described in Jiangsu Hengyi Pharmaceutical Co., Ltd.'s Patent CN 103130737 A. IC50 values were calculated from concentration-dependent reactions using a non-linear analysis program. Ki values were calculated from IC50 values by using Cheng-Prussoff equation, i.e. Ki=IC50/(1+[L]/KD), wherein Ki is the affinity of the drug to the receptor; […]; and KD is the affinity of radioligand to the receptor.
The concentration of the compound was 10 μmol/L, and the assay was performed according to the method described in Journal of Pharmacology and Experimental Therapeutics 2010, 333 (1): 328.

[3] = molecular target: T1, Dopamine D2 receptor (Homo sapiens, UniProt P14416); assay: Dopamine D2 receptor binding assay; conditions: [3H] Spiperone, HEK293 cells expressing D2 receptor
T1 construct: expressed in transfected cells
T1 sequence (P14416 whole entry, species assumed): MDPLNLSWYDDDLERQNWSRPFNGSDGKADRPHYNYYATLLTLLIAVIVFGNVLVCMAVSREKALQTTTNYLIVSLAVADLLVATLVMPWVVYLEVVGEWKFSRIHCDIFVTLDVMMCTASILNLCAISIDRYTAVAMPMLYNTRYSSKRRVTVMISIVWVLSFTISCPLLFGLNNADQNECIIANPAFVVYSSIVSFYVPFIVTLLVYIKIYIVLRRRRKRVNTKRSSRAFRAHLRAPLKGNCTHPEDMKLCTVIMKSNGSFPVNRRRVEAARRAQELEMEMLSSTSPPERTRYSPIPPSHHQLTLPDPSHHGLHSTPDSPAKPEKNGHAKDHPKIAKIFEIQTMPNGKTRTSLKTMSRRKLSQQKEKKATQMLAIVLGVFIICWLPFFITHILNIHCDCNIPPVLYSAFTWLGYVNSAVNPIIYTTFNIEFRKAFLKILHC
Experimental: as §1
(I) Dopamine D2 Receptor Binding Assay
• a. Transfection of D2 Receptor Cells: by using calcium phosphate method, HEK293 cells were transfected with a plasmid vector containing the D2 receptor protein gene. The transfected cells were cultured in a culture solution containing G418, followed by a selection of monoclonal cell and radioligand binding assay, finally obtaining a stable cell line with stable expression of D2 receptor protein. • b. Materials for receptor binding assay: isotope ligand [^3H] Spiperone (113.0 Ci/mmol); available from Sigma-Aldrich Company; (+) spiperone, available from RBI company; GF/B glass fiber filter paper, available from Whatman Company; Tris imported and packaged; PPO, POPOP, available from Shanghai Reagent Chemical Company; lipid-soluble scintillation solution; and Beckman LS-6500 Multi-function Liquid Scintillation Counter. ii. Test Method • a. Treatment of cells: HEK-293 cells were infected with various recombinant viruses of the above genes, respectively, and the receptor proteins were highly expressed on the membranes after 48-72 hours. The cells were centrifuged at 1000 rpm for 5 minutes. The culture solution was discarded, and the cells were collected and stored in a refrigerator at −20° C. for standby. The cells were resuspended with Tris-HCl buffer (pH=7.5) when tested. • b. Competitive binding assay for receptor
The compound to be tested and the radio ligand, both 20 μL, and 160 μL of receptor proteins were added to the reaction test tubes to achieve a final concentration of 10 μmol/L for each of the compound to be tested and positive control, incubated in a water bath of 30° C. for 50 minutes and immediately transferred to an ice bath to terminate the reaction; placed on a Millipore cell sample collector, filtered by suction rapidly through a […] glass fiber filter, and eluted with 3 mL of eluent (50 mM Tris-HCl, pH7.5) for three times and dried with microwave for 5-6 minutes. The filter paper was transferred into a 0.5 mL centrifuge tube to which 500 μL of lipid-soluble scintillation solution was added, and settled away from light for more than 30 minutes. The radioactive intensity was determined by counting. The concentration of the compound was 10 μmol/L, and inhibition rate (%) of each compound to the binding of isotope ligands was calculated according to the following equation: Inhibition rate (I%)=(total binding tube cpm−compound cpm)/(total binding tube cpm—non-specific binding tube cpm)×100%. (II) Dopamine D3 Receptor Binding Assay

[4] = molecular target: T2, 5-HT1A receptor (Homo sapiens, UniProt P08908); assay: 5-HT1A receptor binding assay; conditions: [3H] 8-OH-DPAT, HEK-293 cells expressing 5-HT1A receptor
T2 construct: expressed in transfected cells
T2 sequence (P08908 1-422): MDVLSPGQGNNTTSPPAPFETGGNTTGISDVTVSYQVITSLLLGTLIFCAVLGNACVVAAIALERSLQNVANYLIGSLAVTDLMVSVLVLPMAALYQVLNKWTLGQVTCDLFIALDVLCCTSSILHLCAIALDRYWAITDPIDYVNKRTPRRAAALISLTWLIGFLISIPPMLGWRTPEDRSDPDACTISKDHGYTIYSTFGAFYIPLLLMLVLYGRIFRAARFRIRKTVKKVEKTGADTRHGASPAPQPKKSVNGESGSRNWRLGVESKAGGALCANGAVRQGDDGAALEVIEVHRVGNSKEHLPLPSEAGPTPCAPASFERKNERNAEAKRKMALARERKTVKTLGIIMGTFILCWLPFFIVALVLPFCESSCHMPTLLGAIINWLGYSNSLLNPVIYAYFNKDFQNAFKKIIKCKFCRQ
Experimental: as §1
(III) 5-HT1A Receptor Binding Assay
5-HT1A receptor isotope ligand [^3H] 8-OH-DPAT (available from PE Company); (+)5-hydroxytrptamine (available from Sigma Company); GF/B glass fiber filter paper (available from Whatman Company); lipid-soluble scintillation solution: PPO, POPOP (available from Shanghai Chemical Reagent Company); toluene (from Sinopharm Chemical Reagent Co., Ltd.); Tris imported and packaged.
Treatment of cells: HEK-293 cells which stably express the 5-HT1A receptor by gene recombination were cultured in DMEM+10% serum solution for 3-5 days and then collected with PBS. The cells were centrifuged at 3000 rpm and […] for 10 minutes. Afterwards, the supernate was discarded, and the cells were collected and stored in a refrigerator at −80° C. The cells were resuspended with D1 Binding Buffer (pH 7.4) when tested.
Inhibition rate of each compound of 10 umol/L to the binding of [^3H]8-OH-DPAT and the 5-HT1A receptor was determined by a general selection.

[5] = Acute toxicity assay, single oral administration; conditions: ICR, mouse, in vivo; single oral administration, Bliss method; read-out: LD50
Experimental: Acute Toxicity Assay of the Cyclohexane Derivatives of the Present Invention
ICR mice orally administered with the compounds of the present invention were evaluated and their toxicity symptoms after oral administration were observed, as well as the mortality, which was calculated by Bliss method, thus the acute toxicities were compared.
• i. Preparation of solvent: Tween-80 of an appropriate amount was diluted with deionized water to a concentration of […] (g/v) Tween-80. • ii. […]. Administration: the test compound and solvent medium control groups (0.5% Tween-80) were administered orally.
Observations include but are not limited to: general condition, behavior, gait, eyes, mouth, nose, gastrointestinal tract, skin and hair and urogenital tract.

Compound | inhibition of high spontaneous activity of MK-801-induced rats [1] | Total Distance within 61-150 minutes [1] [m] | Improvement Rate [1] [%] | Ki [2] [nM] | Ki [3] [nM] | Ki [4] [nM] | LD50 at 6 days [5] [mg/kg]
CN(C)C(=O)N[C@H]1CC[C@H](CCN2CCN(c3cccc4sccc34)CC2)CC1 [Compound 1, N′-[trans-4-[2-[4-(benzo[b]thiophene)-7-piperazinyl]ethyl]cyclohexyl]-N,N-dimethylurea] | significantly inhibit | 73.09 ± 11.7 | 76.41 |  |  |  | 
CN(C)C(=O)N[C@H]1CC[C@H](CCN2CCN(c3cccc4ccsc34)CC2)CC1 [Compound 2, N′-[trans-4-[2-[7-(benzo[b]thiophene)-7-piperazinyl]ethyl]cyclohexyl]-N,N-dimethylurea] | significantly inhibit | 46.95 ± 10.3 | 84.84 |  |  |  | 
CN(C)C(=O)N[C@H]1CC[C@H](CCN2CCN(c3cccc4cscc34)CC2)CC1 [Compound 3, N′-[trans-4-[2-[4-(benzo[c]thiophene)-7-piperazinyl]ethyl]cyclohexyl]-N,N-dimethylurea] | significantly inhibit | 63.79 ± 10.8 | 79.41 |  |  |  | 
CN(C)C(=O)N[C@H]1CC[C@H](CCN2CCN(c3nsc4ccccc34)CC2)CC1 [Compound 4, N′-[trans-4-[2-[4-(benzo[d]isothiazolyl)-3-piperazinyl]ethyl]cyclohexyl]-N,N-dimethylurea] |  | 232.18 ± 20.3 | 25.05 |  |  |  | 
CN(C)C(=O)N[C@H]1CC[C@H](CCN2CCN(c3noc4cc(F)ccc34)CC2)CC1 [Compound 5, N′-[trans-4-[2-[4-(6-fluoro-benzo[d]isoxazol)-3-piperazinyl]ethyl]cyclohexyl]-N,N-dimethylurea] | significantly inhibit | 5.43 ± 1.7 | 98.25 |  |  |  | 
CN(C)C(=O)N[C@H]1CC[C@H](CCN2CCN(c3ccc4c(Cl)noc4c3)CC2)CC1 [Compound 6, N′-[trans-4-[2-[4-(3-chloro-benzo[d]isoxazol)-6-piperazinyl]ethyl]cyclohexyl]-N,N-dimethylurea] | significantly inhibited | 171.78 ± 13.0 | 12.27 |  |  |  | 
CN(C)C(=O)N[C@H]1CC[C@H](CCN2CCC(c3noc4cc(F)ccc34)CC2)CC1 [Compound 7, N′-[trans-4-[2-[4-(6-fluoro-benzo[d]isoxazol)-3-piperidyl]ethyl]cyclohexyl]-N,N-dimethylurea] | significantly inhibited | 160.82 ± 12.91 | 48.09 |  |  |  | 
Cc1ccc2c(N3CCN(CC[C@H]4CC[C@H](NC(=O)N(C)C)CC4)CC3)noc2c1 [Compound 14, N′-[trans-4-[2-[4-(6-methyl-benzo[d]isoxazol)-4-piperazinyl]ethyl]cyclohexyl]-N,N-dimethylurea] | significantly inhibited | 150.28 ± 11.70 | 51.49 |  |  |  | 
CN(C)C(=O)N[C@H]1CC[C@H](CCN2CCN(c3cccc4ccsc34)CC2)CC1 [drawing 29] |  |  |  | 0.06 | > 1000 | 3.85 | 
CN(C)C(=O)N[C@H]1CC[C@H](CCN2CCN(c3cccc4cscc34)CC2)CC1 [drawing 30] |  |  |  | 0.07 | 978 | 3.72 | 
CN(C)C(=O)N[C@H]1CC[C@H](CCN2CCN(c3cccc4sccc34)CC2)CC1 [drawing 31] |  |  |  | 0.06 | > 1000 | 3.96 | 
CN(C)C(=O)N[C@H]1CC[C@H](CCN2CCN(c3noc4cc(F)ccc34)CC2)CC1 [drawing 32] |  |  |  | 0.29 | 1.3 | 4.12 | 
CN(C)C(=O)N[C@H]1CC[C@H](CCN2CCN(c3ccc4c(Cl)noc4c3)CC2)CC1 [drawing 33] |  |  |  | 0.57 | 251 | 22.8 | 
CN(C)C(=O)N[C@H]1CC[C@H](CCN2CCC(c3noc4cc(F)ccc34)CC2)CC1 [drawing 34] |  |  |  | 0.15 | > 1000 | 3.65 | 
CN(C)C(=O)N[C@H]1CC[C@H](CCN2CCN(c3cccc4ccsc34)CC2)CC1 [drawing 35] |  |  |  |  |  |  | 1100
CN(C)C(=O)N[C@H]1CC[C@H](CCN2CCN(c3cccc4cscc34)CC2)CC1 [drawing 36] |  |  |  |  |  |  | 1050
CN(C)C(=O)N[C@H]1CC[C@H](CCN2CCN(c3cccc4sccc34)CC2)CC1 [drawing 37] |  |  |  |  |  |  | 1080
